Reference: US4895589A, “Heterocyclic compounds” (Imperial Chemical Industries PLC, priority 1985, dated 1990)

Key:
Rice [1] = test: Intermediate Retardant Test, rice; format: in vivo, Rice (Ishikari); conditions: Oryza sativa, 672 h, ~28 days, Table VII, read-out: Percentage Reduction in Height of Rice (Compared to formulation blank)
Method: (§1) Three species are involved in this test RICE, SPRING-BARLEY and APPLES. The variety and growth stages at spray are outlined in Table VI. Compounds were applied at 1000 ppm and 4000 ppm respectively (1 kg and 4 kg ha^-1 at a field volume of 1000 l/ha^-1) as an overall spray. This gives a foliar and root component in the test, i.e. this test will detect the activity of both root and foliar acting compounds. The rice was grown in 4" `paddy` pots, i.e. the roots and bottom of the stems are immersed in water under conditions corresponding to those in paddy fields. Spring barley and apples were grown in 4" pots. The plants were assessed for height to top-most ligule at approximately 28 days after treatment for spring barley and rice and for height to apex at approximately 28 days after the treatment for apples. In each case the result for the 1000 ppm and 4000 ppm test for each compound is compared to the height of the formulation blank in that test, presented as a percentage reduction in height compared to the formulation blank.
as §1, with “in Table XIV. Compounds were” for “in Table VI. Compounds were”, “that test, and presented as” for “that test, presented as”

Spring Barley = test: Intermediate Retardant Test, spring barley; format: in vivo, Spring Barley (Atem/kym); conditions: Hordeum vulgare, 672 h, ~28 days, Table VIII, read-out: Percentage Reduction in Height of Spring Barley (Compared to formulation blank)
Method: as §1
as §1, with “in Table XIV. Compounds were” for “in Table VI. Compounds were”, “that test, and presented as” for “that test, presented as”

Apples = test: Intermediate Retardant Test, apples; format: in vivo, Apples (Red Delicious); conditions: 672 h, ~28 days, Table IX, read-out: Percentage Reduction in Height of Apples (Compared to formulation blank)
Method: as §1
as §1, with “in Table XIV. Compounds were” for “in Table VI. Compounds were”, “that test, and presented as” for “that test, presented as”

Wheat [2] = conditions: WW, 4000 ppm, 2-3 weeks
Method: (§5) The compounds were tested for plant growth regulator activity against up to tweleve plant species for various growth effects relevant to plant growth regulation.
(§6) After spray, the plants were grown in a glasshouse with 25° C. day/22° C. night temperatures and supplementary lighting was supplied when necessary (from mercury vapour lamps), to provide a 16 hour photoperiod. The exception to this were the temperate cereals, wheat and barley, which were grown in 16° C. day 13° C. night temperatures
(§7) After 2-3 weeks in the glasshouse, depending on the time of year, the plants were visually assessed for morphological characteristics. Formulations blanks were used as controls to assess the Plants.

Maize = conditions: MZ, 4000 ppm, 2-3 weeks
Method: as §5, §6, §7

Dacrylis glomerata = conditions: DA, 4000 ppm, 2-3 weeks
Soya = conditions: SY, 4000 ppm, 2-3 weeks
Method: as §5, §6, §7

Tomato = conditions: TO, 4000 ppm, 2-3 weeks
Vines = conditions: VN, 4000 ppm, 2-3 weeks
Method: as §5, §6, §7

Lettuce = conditions: LT, 4000 ppm, 2-3 weeks
Method: as §5, §6, §7

[3] = system: plant species of Whole Plant Screen (1) or (2); test: Across screen comparison: total retardation relative to paclobutrazol (Whole Plant Screens (1) and (2)); format: in vivo; conditions: compounds of Table I, Table X
From the text: The following Example is a general indicative comparison of compounds from EP No. 0052424 with compounds from the preferred class in the present invention. The compounds have not been side-by-side tested on this Example because of the large numbers involved but the retardant activity can be compared using a standard which has been on each test.
The compounds which are compared in this Example have been tested on one of two tests. These are the Whole Plant Screen (1) and Whole Plant Screen (2) the methods for which are described in Examples 17 and 18 respectively.
An across screen comparison between compounds is made by expressing the total retardation (ie. sum of retardation scores recorded for each species tested) caused by the compound as a percentage of the total retardation caused by the standard in that test. The standard chemical gives a measure of the performance of the test and environmental factors. By expressing the test compound activity as a percentage of the standard compound activity these factors can be eliminated . The same standard has been used in every test and this is paclobutrazol a proprietory growth regulator.

Barley [4] = conditions: BR, 4000 ppm, 2-3 weeks
Agrostis tenius = conditions: AT, 4000 ppm, 2-3 weeks
Method: as §5, §6, §7

Cynosurus cristatus = conditions: CC, 4000 ppm, 2-3 weeks
Sugar beet = conditions: SB, 4000 ppm, 2-3 weeks
Method: as §5, §6, §7

Barley [5] = test: Whole Plant Screen (2), barley; format: in vivo, Barley (Atem); conditions: BR, 4000 ppm, 2-6 weeks, Table V
Method: (§2) Compound numbers 1, 5 and 7 (of the present invention) were tested against compounds A, B, C and D (compound Nos. 12, 2, 24 and 50 of Table 1 EP No. 0052424) on whole plant screen (2). The compounds were tested of plant growth regulator activity against five species and for various growth effects relevant to plant growth regulation. The structures are set out in FIG. 1.
(§3) The plant species used in this screen are presented in Table XII with the leaf stage at which they were sprayed Each chemical was applied at 4000 ppm (4 kg/ha in a 1000 l/ha field volume) using a tracksprayer and a SS8004E (Teejet) nozzle. […]

Wheat [6] = test: Whole Plant Screen (2), wheat; format: in vivo, Wheat (Timmo); conditions: WW, 4000 ppm, 2-6 weeks, Table V
Method: Compound numbers 12-13, 16-17 and 19-20 were tested on an alternative whole plant screen (2). The compounds were tested for plant growth regulator activity against five species for various growth effects relevant to plant growth regulation.
The plant species used in this screen are presented in Table IV with the leaf stage at which they were sprayed. Each chemical was applied at 4000 ppm (4 kg/ha in a 1000 l/ha field volume) using a tracksprayer and a SS8004E (Teejet) nozzle. […]
After 2-6 weeks in the glasshouse, depending on the time of year, the plants were visually assessed for morphological characteristics. Formulation blanks were used as controls to assess the plants. […]

Rice [7] = test: Whole Plant Screen (2), rice; format: in vivo, Rice (Ishikari); conditions: RC, 4000 ppm, 2-6 weeks, Table V
Method: (§4) After 2-6 weeks in the glasshouse, depending on the time of year, the plants were visually assessed for morphological characteristics. Formulation blanks were used as controls to assess the plants.
as §2, §3

Apple = test: Whole Plant Screen (2), apple; format: in vivo, Apple (Red Delicious); conditions: Ap, 4000 ppm, 2-6 weeks, Table V
Method: as §4, §2, §3

| Compound | Percent reduction in rice plant height vs formulation blank at 4000 ppm (Rice [1]) [%] | height reduction vs blank at 1000 ppm (Spring Barley) [%] | height reduction vs blank at 4000 ppm (Spring Barley) [%] | percent reduction in plant height vs formulation blank at 1000 ppm (Apples) [%] | percent reduction in plant height vs formulation blank at 4000 ppm (Apples) [%] | Retardation score (1-3) with greening (G), apical damage (A), tillering/side shooting (T) (Wheat [2]) [GT] | Retardation score (1-3) with greening (G), apical damage (A), tillering/side shooting (T) (Dacrylis glomerata) | Retardation score (1-3) with greening (G), apical damage (A), tillering/side shooting (T) (Soya) | Retardation score (1-3) with greening (G), apical damage (A), tillering/side shooting (T) (Tomato) [G] | Retardation score (1-3) with greening (G), apical damage (A), tillering/side shooting (T) (Vines) | Retardation score (1-3) with greening (G), apical damage (A), tillering/side shooting (T) (Lettuce) | Percent reduction in rice plant height vs formulation blank at 1000 ppm (Rice [1]) [%] | Total Retardation expressed as a percentage of the total retardation caused by paclobutrazol [3] | Retardation score (1-3) with greening (G), apical damage (A), tillering/side shooting (T) (Barley [4]) | Retardation score (1-3) with greening (G), apical damage (A), tillering/side shooting (T) (Agrostis tenius) | Retardation score (1-3) with greening (G), apical damage (A), tillering/side shooting (T) (Cynosurus cristatus) | I = Interligular or internodal length reduction (Barley [5]) | T = Tillering or side shooting (Wheat [6]) | A = Apical damage (Apple) | T = Tillering or side shooting (Apple) | further results |
| --- | --- | --- | --- | --- | --- | --- | --- | --- | --- | --- | --- | --- | --- | --- | --- | --- | --- | --- | --- | --- | --- |
| CCCCCCC#CC(O)(Cn1cncn1)C(C)(C)C (centres unmarked) [Compound 4, 2,2-dimethyl-3-hydroxy-3-(oct-1-yne-1-yl)-4-(1,2,4-triazol-1-yl)-butane] | 5.8 | 23.7 | 27.5 | 8.2 | 21 | 1 | 1 (10-30% retardation) | 1G | 2 | 1G | 2 (21-60% retardation) |  |  |  |  |  |  |  |  |  | Retardation score (1-3) with greening (G), apical damage (A), tillering/side shooting (T) (Maize): 1G |
| CCC(C)C#CC(O)(Cn1cncn1)C(C)(C)C (centres unmarked) [Compound 6, 2,2-dimethyl-3-hydroxy-3-(3-methyl-pent-1-yne-1-yl)-4-(1,2,4-triazol-1-yl)-butane] | 22.7 | 0.8 | 23.5 | 1.2 | 38.6 | 3 | 1 (10-30% retardation) | 2GA | 1 | 2GT | 1G | 11.2 | 52.0 % of paclobutrazol | 2G | 1 (10-30% retardation) | 1 (10-30% retardation) |  |  |  |  | Retardation score (1-3) with greening (G), apical damage (A), tillering/side shooting (T) (Sugar beet): 1G |
| CCCC(C)C#CC(O)(Cn1cncn1)C(C)(C)C (centres unmarked) [Compound 9, 2,2-dimethyl-3-hydroxy-3-(3-methyl-hex-1-yne-1-yl)-4-(1,2,4-triazol-1-yl)-butane] | 32 | 15.7 | 32.9 |  | 10.8 | 2 | 2 (21-60% retardation) | 2GAT | 2 | 2GT | 1 (10-30% retardation) | 8.2 | 73.9 % of paclobutrazol | 1 (10-30% retardation) | 1 (10-30% retardation) | 2 (21-60% retardation) |  |  |  |  |  |
| CC(C)(C)C(O)(C#CCC1CC1)Cn1cncn1 (centres unmarked) [Compound 16, 2,2-Dimethyl-3-hydroxy-3-(3-cyclopropyl-prop-1-yne-lyl)-4-(1,2,4-triazol-1-yl)-butane] | 34 | 11 | 24 | 31.8 | 62.8 |  |  |  |  |  |  | 14 | 100.0 % of paclobutrazol |  |  |  | 3 (61-100%) | 1 (10-30%) | 2 (31-60%) | 2 (31-60%) | G = Greening effect (Barley [5]): 1 (10-30%); G = Greening effect (Rice [7]): 2 (31-60%); I = Interligular or internodal length reduction (Rice [7]): 3 (61-100%); R = Retardation (Rice [7]): 3 (61-100%); T = Tillering or side shooting (Rice [7]): 1 (10-30%); G = Greening effect (Apple): 2 (31-60%) |
| CCCCC#CC(O)(Cn1cncn1)C(C)(C)CF (centres unmarked) [Compound 17, 2,2-dimethyl-1-fluoro-3-hydroxy-3-(hex-1-yne-1-yl)-4-(1,2,4-triazole-1-yl)-butane] | 22 |  | 24 | 9.9 | 54.5 |  |  |  |  |  |  |  | 150.0 % of paclobutrazol |  |  |  | 2 (31-60%) | 1 (10-30%) | 3 (61-100%) | 2 (31-60%) | G = Greening effect (Wheat [6]): 1 (10-30%) |
